{"source": "patent US6358885B1", "about": "“Substituted phenylheterocyclic herbicides” (Mississippi State University, priority 1992, dated 2002)", "key": {"wheat [1]": {"system": "wheat", "experiment": "Test C preemergence/postemergence greenhouse plant response rating 0 to 100", "type": "in vivo, Triticum aestivum", "conditions": "POSTEMERGENCE; for Plant response rating, Wheat: 0 to 100 scale", "procedure,_shortened": "(§1)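 Compounds in non-phytotoxic solvent applied preemergence to sandy loam one day after planting, postemergence at the 1–4 leaf stage, or to ~2.5 cm floodwater over silt loam.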"}, "sorghum [2]": {"system": "sorghum", "experiment": "Test B preemergence/postemergence greenhouse plant response rating 0 to 10", "type": "in vivo, Sorghum bicolor", "conditions": "0 to 10 scale", "procedure,_shortened": "(§2)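 Postemergence treatment of plants two to eighteen cm tall ran alongside preemergence treatment of planted seed, each using compound in a non-phytotoxic solvent.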"}, "wheat [3]": {"system": "wheat", "experiment": "Test B preemergence/postemergence greenhouse plant response rating 0 to 10", "type": "in vivo, Triticum aestivum", "conditions": "0 to 10 scale", "procedure,_shortened": "as §2"}, "barnyardgrass": {"system": "barnyardgrass", "experiment": "Test C flood test plant response rating 0 to 100", "type": "in vivo, Echinochloa crus-galli", "conditions": "for Plant response rating (0 to 100), Barnyardgrass: under POSTEMERGENCE head (flood test species); for Plant response rating, Barnyardgrass: flood test species listed under POSTEMERGENCE, 0 to 100 scale", "procedure,_shortened": "as §1"}, "bedstraw": {"system": "bedstraw", "experiment": "Test B preemergence/postemergence greenhouse plant response rating 0 to 10", "type": "in vivo, Galium aparine", "conditions": "0 to 10 scale", "procedure,_shortened": "as §2"}, "barley": {"system": "barley", "experiment": "Test B preemergence/postemergence greenhouse plant response rating 0 to 10", "type": "in vivo, Hordeum vulgare", "conditions": "0 to 10 scale", "procedure,_shortened": "as §2"}, "ryegrass": {"system": "ryegrass", "experiment": "Test C preemergence/postemergence greenhouse plant response rating 0 to 100", "type": "in vivo, Lolium multiflorum", "conditions": "POSTEMERGENCE; for Plant response rating Ryegrass: 0 to 100 scale", "procedure,_shortened": "as §1"}, "wild oat [4]": {"system": "wild oat", "experiment": "Test B preemergence/postemergence greenhouse plant response rating 0 to 10", "type": "in vivo, Avena fatua", "conditions": "0 to 10 scale", "procedure,_shortened": "as §2"}, "rape": {"system": "rape", "experiment": "Test C preemergence/postemergence greenhouse plant response rating 0 to 100", "type": "in vivo, Brassica napus", "conditions": "POSTEMERGENCE; for Plant response rating, Rape: 0 to 100 scale", "procedure,_shortened": "as §1"}, "wild buckwheat": {"system": "wild buckwheat", "experiment": "Test C preemergence/postemergence greenhouse plant response rating 0 to 100", "type": "in vivo, Polygonum convolvulus", "conditions": "POSTEMERGENCE; for Plant response rating, Wild buckwheat: 0 to 100 scale", "procedure,_shortened": "as §1"}, "sugar beet": {"system": "sugar beet", "experiment": "Test B preemergence/postemergence greenhouse plant response rating 0 to 10", "type": "in vivo, Beta vulgaris", "conditions": "0 to 10 scale", "procedure,_shortened": "as §2"}, "downy brome": {"system": "downy brome", "experiment": "Test C preemergence/postemergence greenhouse plant response rating 0 to 100", "type": "in vivo, Bromus tectorum", "conditions": "POSTEMERGENCE; for Plant response rating Downy Brome: 0 to 100 scale", "procedure,_shortened": "as §1"}, "cotton": {"system": "cotton", "experiment": "Test B preemergence/postemergence greenhouse plant response rating 0 to 10", "type": "in vivo, Gossypium hirsutum", "conditions": "0 to 10 scale", "procedure,_shortened": "as §2"}, "sorghum [5]": {"system": "sorghum", "experiment": "Test C preemergence/postemergence greenhouse plant response rating 0 to 100", "type": "in vivo, Sorghum bicolor", "conditions": "POSTEMERGENCE; for Plant response rating, Sorghum: 0 to 100 scale", "procedure,_shortened": "as §1"}, "lambsquarters": {"system": "lambsquarters", "experiment": "Test B preemergence/postemergence greenhouse plant response rating 0 to 10", "type": "in vivo, Chenopodium album", "conditions": "0 to 10 scale", "procedure,_shortened": "as §2"}, "blackgrass": {"system": "blackgrass", "experiment": "Test B preemergence/postemergence greenhouse plant response rating 0 to 10", "type": "in vivo, Alopecurus myosuroides", "conditions": "0 to 10 scale", "procedure,_shortened": "as §2"}, "crabgrass": {"system": "crabgrass", "experiment": "Test C preemergence/postemergence greenhouse plant response rating 0 to 100", "type": "in vivo, Digitaria sanguinalis", "conditions": "POSTEMERGENCE; for Plant response rating, Crabgrass: 0 to 100 scale", "procedure,_shortened": "as §1"}, "wild oat [6]": {"system": "wild oat", "experiment": "Test C preemergence/postemergence greenhouse plant response rating 0 to 100", "type": "in vivo, Avena fatua", "conditions": "POSTEMERGENCE; for Plant response rating, Wild oat: 0 to 100 scale", "procedure,_shortened": "as §1"}}}
{"molecule": "C=C(Cl)COc1cc(-c2nn3c(c2Cl)CCCC3)c(F)cc1Cl", "note": "[Compound 40]", "values": [{"measurement": "Plant response rating, Wheat", "setting": "wheat [1]; 62 g/ha", "result": 40}, {"measurement": "Plant response rating, Wheat", "setting": "wheat [1]; 125 g/ha", "result": 50}, {"measurement": "Plant response rating (0 to 100), Wheat", "setting": "wheat [1]; Rate 16 g/ha", "result": 20}, {"measurement": "Plant response rating (0 to 100), Wheat", "setting": "wheat [1]; Rate 31 g/ha", "result": 30}, {"measurement": "Plant response rating, Sorghum", "setting": "sorghum [2]; POSTEMERGENCE, Rate 50 g/ha", "result": 4}, {"measurement": "Plant response rating, Sorghum", "setting": "sorghum [2]; PREEMERGENCE, Rate 50 g/ha", "result": 0}, {"measurement": "Plant response rating, Sorghum", "setting": "sorghum [2]; Rate 200 g/ha, POSTEMERGENCE", "result": 5}, {"measurement": "Plant response rating, Sorghum", "setting": "sorghum [2]; Rate 200 g/ha, PREEMERGENCE", "result": 1}, {"measurement": "Plant response rating, Wheat", "setting": "wheat [3]; POSTEMERGENCE, Rate 50 g/ha", "result": 4}, {"measurement": "Plant response rating, Wheat", "setting": "wheat [3]; PREEMERGENCE, Rate 50 g/ha", "result": 0}, {"measurement": "Plant response rating, Wheat", "setting": "wheat [3]; Rate 200 g/ha, POSTEMERGENCE", "result": 6}, {"measurement": "Plant response rating, Wheat", "setting": "wheat [3]; Rate 200 g/ha, PREEMERGENCE", "result": 2}, {"measurement": "Plant response rating (0 to 100), Barnyardgrass", "setting": "barnyardgrass; Rate 16 g/ha", "result": 100}, {"measurement": "Plant response rating (0 to 100), Barnyardgrass", "setting": "barnyardgrass; Rate 31 g/ha", "result": 100}, {"measurement": "Plant response rating, Barnyardgrass", "setting": "barnyardgrass; 62 g/ha", "result": 100}, {"measurement": "Plant response rating, Barnyardgrass", "setting": "barnyardgrass; 125 g/ha", "result": 100}, {"measurement": "Plant response rating, Bedstraw", "setting": "bedstraw; POSTEMERGENCE, Rate 50 g/ha", "result": 10}, {"measurement": "Plant response rating, Bedstraw", "setting": "bedstraw; PREEMERGENCE, Rate 50 g/ha", "result": 9}, {"measurement": "Plant response rating, Bedstraw", "setting": "bedstraw; Rate 200 g/ha, PREEMERGENCE", "result": 9}, {"measurement": "Plant response rating, Barley", "setting": "barley; POSTEMERGENCE, Rate 50 g/ha", "result": 4}, {"measurement": "Plant response rating, Barley", "setting": "barley; POSTEMERGENCE, Rate 200 g/ha", "result": 5}, {"measurement": "Plant response rating, Barley", "setting": "barley; PREEMERGENCE, Rate 50 g/ha", "result": 0}, {"measurement": "Plant response rating, Barley", "setting": "barley; Rate 200 g/ha, PREEMERGENCE", "result": 1}, {"measurement": "Plant response rating Ryegrass", "setting": "ryegrass; 62 g/ha", "result": 30}, {"measurement": "Plant response rating Ryegrass", "setting": "ryegrass; 125 g/ha", "result": 40}, {"measurement": "Plant response rating (0 to 100), Ryegrass", "setting": "ryegrass; Rate 16 g/ha", "result": 10}, {"measurement": "Plant response rating (0 to 100), Ryegrass", "setting": "ryegrass; Rate 31 g/ha", "result": 20}, {"measurement": "Plant response rating, Wild oat", "setting": "wild oat [4]; POSTEMERGENCE, Rate 50 g/ha", "result": 4}, {"measurement": "Plant response rating, Wild oat", "setting": "wild oat [4]; PREEMERGENCE, Rate 50 g/ha", "result": 0}, {"measurement": "Plant response rating, Wild oat", "setting": "wild oat [4]; Rate 200 g/ha, POSTEMERGENCE", "result": 5}, {"measurement": "Plant response rating, Rape", "setting": "rape; 62 g/ha", "result": 70}, {"measurement": "Plant response rating, Rape", "setting": "rape; 125 g/ha", "result": 70}, {"measurement": "Plant response rating (0 to 100), Rape", "setting": "rape; Rate 16 g/ha", "result": 50}, {"measurement": "Plant response rating (0 to 100), Rape", "setting": "rape; Rate 31 g/ha", "result": 70}, {"measurement": "Plant response rating, Wild buckwheat", "setting": "wild buckwheat; 62 g/ha", "result": 100}, {"measurement": "Plant response rating, Wild buckwheat", "setting": "wild buckwheat; 125 g/ha", "result": 100}, {"measurement": "Plant response rating (0 to 100), Wild buckwheat", "setting": "wild buckwheat; Rate 16 g/ha", "result": 50}, {"measurement": "Plant response rating (0 to 100), Wild buckwheat", "setting": "wild buckwheat; Rate 31 g/ha", "result": 50}, {"measurement": "Plant response rating, Sugar beet", "setting": "sugar beet; POSTEMERGENCE, Rate 50 g/ha", "result": 10}, {"measurement": "Plant response rating, Sugar beet", "setting": "sugar beet; PREEMERGENCE, Rate 50 g/ha", "result": 9}, {"measurement": "Plant response rating, Sugar beet", "setting": "sugar beet; Rate 200 g/ha, POSTEMERGENCE", "result": 10}, {"measurement": "Plant response rating, Sugar beet", "setting": "sugar beet; Rate 200 g/ha, PREEMERGENCE", "result": 9}, {"measurement": "Plant response rating Downy Brome", "setting": "downy brome; 62 g/ha", "result": 50}, {"measurement": "Plant response rating Downy Brome", "setting": "downy brome; 125 g/ha", "result": 60}, {"measurement": "Plant response rating (0 to 100), Downy Brome", "setting": "downy brome; Rate 16 g/ha", "result": 30}, {"measurement": "Plant response rating (0 to 100), Downy Brome", "setting": "downy brome; Rate 31 g/ha", "result": 40}, {"measurement": "Plant response rating, Cotton", "setting": "cotton; POSTEMERGENCE, Rate 50 g/ha", "result": 10}, {"measurement": "Plant response rating, Cotton", "setting": "cotton; POSTEMERGENCE, Rate 200 g/ha", "result": 10}, {"measurement": "Plant response rating, Cotton", "setting": "cotton; PREEMERGENCE, Rate 50 g/ha", "result": 1}, {"measurement": "Plant response rating, Cotton", "setting": "cotton; Rate 200 g/ha, PREEMERGENCE", "result": 7}, {"measurement": "Plant response rating, Sorghum", "setting": "sorghum [5]; 62 g/ha", "result": 30}, {"measurement": "Plant response rating, Sorghum", "setting": "sorghum [5]; 125 g/ha", "result": 50}, {"measurement": "Plant response rating (0 to 100), Sorghum", "setting": "sorghum [5]; Rate 16 g/ha", "result": 20}, {"measurement": "Plant response rating (0 to 100), Sorghum", "setting": "sorghum [5]; Rate 31 g/ha", "result": 20}, {"measurement": "Plant response rating, Lambsquarter", "setting": "lambsquarters; POSTEMERGENCE, Rate 50 g/ha", "result": 9}, {"measurement": "Plant response rating, Lambsquarter", "setting": "lambsquarters; PREEMERGENCE, Rate 50 g/ha", "result": 10}, {"measurement": "Plant response rating, Lambsquarter", "setting": "lambsquarters; Rate 200 g/ha, POSTEMERGENCE", "result": 10}, {"measurement": "Plant response rating, Lambsquarter", "setting": "lambsquarters; Rate 200 g/ha, PREEMERGENCE", "result": 10}, {"measurement": "Plant response rating, Blackgrass", "setting": "blackgrass; POSTEMERGENCE, Rate 50 g/ha", "result": 2}, {"measurement": "Plant response rating, Blackgrass", "setting": "blackgrass; POSTEMERGENCE, Rate 200 g/ha", "result": 3}, {"measurement": "Plant response rating, Blackgrass", "setting": "blackgrass; Rate 200 g/ha, PREEMERGENCE", "result": 2}, {"measurement": "Plant response rating, Crabgrass", "setting": "crabgrass; 62 g/ha", "result": 10}, {"measurement": "Plant response rating, Crabgrass", "setting": "crabgrass; 125 g/ha", "result": 10}, {"measurement": "Plant response rating (0 to 100), Crabgrass", "setting": "crabgrass; Rate 16 g/ha", "result": 10}, {"measurement": "Plant response rating (0 to 100), Crabgrass", "setting": "crabgrass; Rate 31 g/ha", "result": 10}, {"measurement": "Plant response rating, Wild oat", "setting": "wild oat [6]; 62 g/ha", "result": 30}, {"measurement": "Plant response rating, Wild oat", "setting": "wild oat [6]; 125 g/ha", "result": 40}, {"measurement": "Plant response rating (0 to 100), Wild oat", "setting": "wild oat [6]; Rate 16 g/ha", "result": 20}, {"measurement": "Plant response rating (0 to 100), Wild oat", "setting": "wild oat [6]; Rate 31 g/ha", "result": 20}]}
